# Data: patent publication US20100234439A1, “THERAPEUTIC AGENTS” (priority 2006, published 2010)
# Target: T1, CB1 receptor (Homo sapiens, UniProt P21554)
# T1 construct: expressed in transfected cells; membranes prepared from them
# Assay: [35S]-GTPγS binding assay, membranes from cells stably transfected with the CB1 gene, inhibition of CP55940 (EC80) stimulated activity
# Assay type: biochemical
# Conditions: concentration giving half maximal inhibition of GTPγS binding; EC80 concentration of agonist CP55940; 30° C., 45 min
# Procedure: The compound of the present invention is active against the receptor product of the CB1 gene. The affinity of the compound of the invention for central cannabinoid receptors is demonstrable in methods described in Devane et al, Molecular Pharmacology, 1988, 34,605 or those described in WO01/70700 or EP 656354. Alternatively the assay may be performed as follows.
# 10 μg of membranes prepared from cells stably transfected with the CB1 gene were suspended in 200 μl of 100 mM NaCl, 5 mM MgCl2, 1 mM EDTA, 50 mM HEPES (pH 7.4), 1 mM DTT, 0.1% BSA and 100 μM GDP. To this was added an EC80 concentration of agonist (CP55940), the required concentration of test compound and 0.1 μCi [^35S]-GTPγS.
# The reaction was allowed to proceed at 30° C. for 45 min. […] Filters were then covered with scintilant and counted for the amount of [^35S]-GTPγS retained by the filter.
# Activity is measured in the absence of all ligands (minimum activity) or in the presence of an EC80 concentration of CP55940 (maximum activity). […] At various concentrations of novel ligand, activity is calculated as a percentage of the maximum activity and plotted. The data are fitted using the equation y=A+((B−A)/1+((C/x)ÙD)) and the IC50 value determined as the concentration required to give half maximal inhibition of GTPγS binding under the conditions used.
# T1 sequence (P21554 whole entry): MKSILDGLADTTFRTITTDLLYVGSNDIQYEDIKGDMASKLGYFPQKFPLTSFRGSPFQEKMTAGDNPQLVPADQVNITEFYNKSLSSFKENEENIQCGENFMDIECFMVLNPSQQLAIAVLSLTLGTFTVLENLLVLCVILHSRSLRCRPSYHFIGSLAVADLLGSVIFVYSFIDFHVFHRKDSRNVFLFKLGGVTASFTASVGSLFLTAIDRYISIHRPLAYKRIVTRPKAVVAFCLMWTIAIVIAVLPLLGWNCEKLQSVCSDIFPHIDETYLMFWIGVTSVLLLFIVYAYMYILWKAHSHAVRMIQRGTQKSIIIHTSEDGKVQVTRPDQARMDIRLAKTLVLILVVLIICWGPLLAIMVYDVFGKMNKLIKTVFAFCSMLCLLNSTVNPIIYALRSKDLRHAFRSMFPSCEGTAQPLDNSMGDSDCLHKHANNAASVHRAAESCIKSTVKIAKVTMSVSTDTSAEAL
compound,measurement,value
"O=C(N[C@@H]1CCCC[C@@H]1O)c1nn(-c2ccc(Cl)cc2Cl)c(-c2ccc(OS(=O)(=O)CCC(F)(F)F)cc2)c1CO (single isomer, unassigned) [Example 1, (+)3,3,3-Trifluoro-propane-1-sulfonic acid 4-[2-(2,4-dichloro-phenyl)-5-(2-hydroxy-cyclohexylcarbamoyl)-4-hydroxymethyl-2H-pyrazol-3-yl]-phenyl ester]",IC50,1 nM
